According to US9273033B2, “Substituted pyridone derivatives as PDE10 inhibitors” (Merck Sharp & Dohme Corp., priority 2012, dated 2016):

Target: human PDE10A2 (Homo sapiens (Human), UniProt Q9Y233)
Assay: PDE10 fluorescence polarization (IMAP FP) inhibition assay
Format: biochemical
Conditions: human PDE10A2, FAM-labeled cAMP substrate, read-out: PDE10A Ki
Description: The activity of the compounds in accordance with the present invention as PDE10 inhibitors may be readily determined without undue experimentation using a fluorescence polarization (FP) methodology that is well known in the art (Huang, W., et al., J. Biomol Screen, 2002, 7: 215).
In a typical experiment the PDE10 inhibitory activity of the compounds of the present invention was determined in accordance with the following experimental method. PDE10A2 was amplified from human fetal brain cDNA (Clontech, Mountain View, Calif.) using a forward primer corresponding to nucleotides 56-77 of human PDE10A2 (Accession No. AF127480, Genbank Identifier 4894716), containing a Kozak consensus sequence, and a reverse primer corresponding to nucleotides 2406-2413 of human PDE10A2 (Accession No. AF127480, Genbank Identifier 4894716). Amplification with Easy-A polymerase (Stratagene, La Jolla, Calif.) was 95° C. for 2 minutes followed by thirty three cycles of 95° C. for 40 seconds, 55° C. for 30 seconds, and 72° C. for 2 minutes 48 seconds. Final extension was 72° C. for 7 minutes. The PCR product was TA cloned into pcDNA3.2-TOPO (Invitrogen, Carlsbad, Calif.) according to standard protocol. AD293 cells with 70-80% confluency were transiently transfected with human PDE10A2/pcDNA3.2-TOPO using Lipofectamine 2000 according to manufacturer specifications (Invitrogen, Carlsbad, Calif.). Cells were harvested 48 hours post-transfection and lysed by sonication (setting 3, 10×5 sec pulses) in a buffer containing 20 mM HEPES, 1 mM EDTA and protease inhibitor cocktail (Roche). Lysate was collected by centrifugation at 75,000×g for 20 minutes. Supernatant containing the cytoplasmic fraction was used for evaluation of PDE10A2 activity. The fluorescence polarization assay for cyclic nucleotide phosphodiesterases was performed using an IMAP® FP kit supplied by Molecular Devices, Sunnyvale, Calif. (product # R8139). IMAPU technology has been applied previously to phosphodiesterase assays (Huang, W., et al., J. Biomol Screen, 2002, 7: 215). Assays were performed at room temperature in 384-well microtiter plates with an incubation volume of 20.2 μL. Solutions of test compounds were prepared in DMSO and serially diluted with DMSO to yield 8 μL of each of 10 solutions differing by 3-fold in concentration, at 32 serial dilutions per plate. 100% inhibition is determined using a known PDE10 inhibitor, which can be any compound that is present at 5,000 times its Ki value in the assay described as follows, such as papaverine (see Siuciak, et al. Neuropharmacology (2006) 51:386-396; Becker, et al. Behav Brain Res (2008) 186(2):155-60; Threlfell, et al., J Pharmacol Exp Ther (2009) 328(3):785-795), 2-{4-[pyridin-4-yl-1-(2,2,2-trifluoroethyl)-1H-pyrazol-3-yl]phenoxymethyl}quinoline succinic acid or 2-[4-(1-methyl-4-pyridin-4-yl-1H-pyrazol-3-yl)-phenoxymethyl]quinoline succinic acid (see Schmidt, et al. J Pharmacol Exp Ther (2008) 325:681-690; Threlfell, et al., J Pharmacol Exp Ther (2009) 328(3): 785-795). 0% of inhibition is determined by using DMSO (1% final concentrations).
A Labcyte Echo 555 (Labcyte, Sunnyvale, Calif.) is used to dispense 200 nL from each well of the titration plate to the 384 well assay plate. A solution of enzyme (1/1600 dilution from aliquots; sufficient to produce 20% substrate conversion) and a separate solution of FAM-labeled cAMP PDE from Molecular Devices (product # R7506), at a final concentration of 50 nM are made in the assay buffer (10 mM Tris HCl, pH 7.2, 10 mM MgCl2, 0.05% NaN3 0.01% Tween-20, and 1 mM DTT). The enzyme and the substrate are then added to the assay plates in two consecutive additions of 10 μL, and then shaken to mix. The reaction is allowed to proceed at room temperature for 30 minutes. A binding solution is then made from the kit components, comprised of 80% Solution A, 20% Solution B and binding reagent at a volume of 1/600 the total binding solution.

human PDE10A2, sequence (Q9Y233 267-1055): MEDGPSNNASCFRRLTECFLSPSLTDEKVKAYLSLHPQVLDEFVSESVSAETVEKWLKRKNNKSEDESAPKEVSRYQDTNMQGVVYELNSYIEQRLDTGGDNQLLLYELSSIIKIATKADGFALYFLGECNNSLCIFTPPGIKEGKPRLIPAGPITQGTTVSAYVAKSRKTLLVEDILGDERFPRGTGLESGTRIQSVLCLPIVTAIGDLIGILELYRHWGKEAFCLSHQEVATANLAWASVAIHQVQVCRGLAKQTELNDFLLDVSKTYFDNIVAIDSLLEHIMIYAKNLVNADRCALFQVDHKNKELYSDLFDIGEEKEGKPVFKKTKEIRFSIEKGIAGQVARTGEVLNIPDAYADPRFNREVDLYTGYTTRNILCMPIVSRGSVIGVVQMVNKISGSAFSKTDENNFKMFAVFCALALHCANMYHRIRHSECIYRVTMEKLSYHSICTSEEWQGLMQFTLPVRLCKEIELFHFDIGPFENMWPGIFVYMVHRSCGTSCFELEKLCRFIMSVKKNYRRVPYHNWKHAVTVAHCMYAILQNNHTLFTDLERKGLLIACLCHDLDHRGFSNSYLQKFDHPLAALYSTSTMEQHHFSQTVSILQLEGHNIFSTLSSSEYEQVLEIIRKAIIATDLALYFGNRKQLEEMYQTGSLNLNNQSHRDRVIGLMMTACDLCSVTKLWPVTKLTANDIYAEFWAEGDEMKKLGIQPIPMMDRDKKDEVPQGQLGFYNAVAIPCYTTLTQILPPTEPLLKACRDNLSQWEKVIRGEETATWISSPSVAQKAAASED

| Ki | SMILES |
| --- | --- |
| 63.8 nM | COc1ccc([C@H]2C[C@@H]2COc2nc(C)ncc2-c2cc(=O)n(C)cc2[S+](C)[O-])nc1 (single isomer, unassigned) [Example 109, 4-(4-(((1S,2S)-2-(5-methoxypyridin-2-yl)cyclopropyl)methoxy)-2-methylpyrimidin-5-yl)-1-methyl-5-(methylsulfinyl)pyridin-2(1H)-one,R or S] |
| 49 nM | COc1ccc([C@H]2C[C@@H]2COc2nc(C)ncc2-c2cc(=O)n(C)cc2[S+](C)[O-])nc1 (single isomer, unassigned) [Example 110, 4-(4-(((1S,2S)-2-(5-methoxypyridin-2-yl)cyclopropyl)methoxy)-2-methylpyrimidin-5-yl)-1-methyl-5-(methylsulfinyl)pyridin-2(1H)-one, S or R] |
| 4.39 nM | COC(=O)Cn1cc(-c2cnc(C)nc2OC[C@H]2C[C@@H]2c2ccc(C)cn2)ccc1=O [Example 1, methyl 2-(5-(2-methyl-4-(((1S,2S)-2-(5-methylpyridin-2-yl)cyclopropyl)methoxy)pyrimidin-5-yl)-2-oxopyridin-1(2H)-yl)acetate] |
| 1.01 nM | COc1ccc([C@H]2C[C@@H]2COc2nc(C)ncc2-c2ccc(=O)n(C)c2)nc1 [Example 2, 5-(4-(((1S,2S)-2-(5-methoxypyridin-2-yl)cyclopropyl)methoxy)-2-methylpyrimidin-5-yl)-1-methylpyridin-2(1H)-one] |
| 0.217 nM | Cc1ccc([C@H]2C[C@@H]2COc2nc(C)ncc2-c2ccc(=O)n(C)c2C)nc1 [Example 3, 1,6-dimethyl-5-(2-methyl-4-(((1S,2S)-2-(5-methylpyridin-2-yl)cyclopropyl)methoxy)pyrimidin-5-yl)pyridin-2(1H)-one] |
| 1.95 nM | CCn1c(C)c(-c2cnc(C)nc2OC[C@H]2C[C@@H]2c2ccc(C)cn2)ccc1=O [Example 4, 1-ethyl-6-methyl-5-(2-methyl-4-(((1S,2S)-2-(5-methylpyridin-2-yl)cyclopropyl)methoxy)pyrimidin-5-yl)pyridin-2(1H)-one] |
| 1.1 nM | CCn1cc(-c2cnc(C)nc2OC[C@H]2C[C@@H]2c2ccc(C)cn2)ccc1=O [Example 5, 1-ethyl-5-(2-methyl-4-(((1S,2S)-2-(5-methylpyridin-2-yl)cyclopropyl)methoxy)pyrimidin-5-yl)pyridin-2(1H)-one] |
| 1.38 nM | COCCn1cc(-c2cnc(C)nc2OC[C@H]2C[C@@H]2c2ccc(C)cn2)ccc1=O [Example 6, 1-(2-methoxyethyl)-5-(2-methyl-4-(((1S,2S)-2-(5-methylpyridin-2-yl)cyclopropyl)methoxy)pyrimidin-5-yl)pyridin-2(1H)-one] |
| 3.06 nM | COCCn1c(C)c(-c2cnc(C)nc2OC[C@H]2C[C@@H]2c2ccc(C)cn2)ccc1=O [Example 7, 1-(2-methoxyethyl)-6-methyl-5-(2-methyl-4-(((1S,2S)-2-(5-methylpyridin-2-yl)cyclopropyl)methoxy)pyrimidin-5-yl)pyridin-2(1H)-one] |
| 2.33 nM | COn1cc(-c2cnc(C)nc2OC[C@H]2C[C@@H]2c2ccc(C)cn2)ccc1=O [Example 8, 1-methoxy-5-(2-methyl-4-(((1S,2S)-2-(5-methylpyridin-2-yl)cyclopropyl)methoxy)pyrimidin-5-yl)pyridin-2(1H)-one] |
| 0.014 nM | Cc1ncc(-c2ccc(=O)n(C(C)C)c2)c(OC[C@H]2C[C@@H]2c2ccc3ccccc3n2)n1 [Example 9, 1-isopropyl-5-(2-methyl-4-(((1S,2S)-2-(quinolin-2-yl)cyclopropyl)methoxy)pyrimidin-5-yl)pyridin-2(1H)-one] |
| 0.216 nM | Cc1ncc(-c2ccc(=O)n(-c3ccccc3)c2)c(OC[C@H]2C[C@@H]2c2ccc3ccccc3n2)n1 [Example 10, 5-(2-methyl-4-(((1S,2S)-2-(quinolin-2-yl)cyclopropyl)methoxy)pyrimidin-5-yl)-1-phenylpyridin-2(1H)-one] |
| 0.048 nM | Cc1ncc(-c2ccc(=O)n(C(F)F)c2)c(OC[C@H]2C[C@@H]2c2ccc3ccccc3n2)n1 [Example 11, 1-(difluoromethyl)-5-(2-methyl-4-(((1S,2S)-2-(quinolin-2-yl)cyclopropyl)methoxy)pyrimidin-5-yl)pyridin-2(1H)-one] |
| 0.053 nM | COn1cc(-c2cnc(C)nc2OC[C@H]2C[C@@H]2c2ccc3ccccc3n2)ccc1=O [Example 12, 1-methoxy-5-(2-methyl-4-(((1S,2S)-2-(quinolin-2-yl)cyclopropyl)methoxy)pyrimidin-5-yl)pyridin-2(1H)-one] |
| 0.823 nM | Cc1ccc([C@H]2C[C@@H]2COc2nc(C)ncc2-c2ccc(=O)n(C(C)C)c2)nc1 [Example 13, 1-isopropyl-5-(2-methyl-4-(((1S,2S)-2-(5-methylpyridin-2-yl)cyclopropyl)methoxy)pyrimidin-5-yl)pyridin-2(1H)-one] |
| 1.1 nM | Cc1ccc([C@H]2C[C@@H]2COc2nc(C)ncc2-c2ccc(=O)n(C(F)F)c2)nc1 [Example 14, 1-(difluoromethyl)-5-(2-methyl-4-(((1S,2S)-2-(5-methylpyridin-2-yl)cyclopropyl)methoxy)pyrimidin-5-yl)pyridin-2(1H)-one] |
| 4.86 nM | Cc1ccc([C@H]2C[C@@H]2COc2nc(C)ncc2-c2ccc(=O)n(-c3ccccc3)c2)nc1 [Example 15, 5-(2-methyl-4-(((1S,2S)-2-(5-methylpyridin-2-yl)cyclopropyl)methoxy)pyrimidin-5-yl)-1-phenylpyridin-2(1H)-one] |
| 0.185 nM | CCc1cc(-c2cnc(C)nc2OC[C@H]2C[C@@H]2c2ccc(OC)cn2)cn(C)c1=O [Example 16, 3-ethyl-5-(4-(((1S,2S)-2-(5-methoxypyridin-2-yl)cyclopropyl)methoxy)-2-methylpyrimidin-5-yl)-1-methylpyridin-2(1H)-one] |
| 0.151 nM | COc1ccc([C@H]2C[C@@H]2COc2nc(C)ncc2-c2cc(OC)c(=O)n(C)c2)nc1 [Example 17, 3-methoxy-5-(4-(((1S,2S)-2-(5-methoxypyridin-2-yl)cyclopropyl)methoxy)-2-methylpyrimidin-5-yl)-1-methylpyridin-2(1H)-one] |
| 1.29 nM | COc1ccc([C@H]2C[C@@H]2COc2nc(C)ncc2-c2cc(F)c(=O)n(C)c2)nc1 [Example 18, 3-fluoro-5-(4-(((1S,2S)-2-(5-methoxypyridin-2-yl)cyclopropyl)methoxy)-2-methylpyrimidin-5-yl)-1-methylpyridin-2(1H)-one] |
| 4.68 nM | COc1ccc([C@H]2C[C@@H]2COc2nc(C)ncc2-c2ccc(=O)n(-c3ccccc3)c2)nc1 [Example 19, 5-(4-(((1S,2S)-2-(5-methoxypyridin-2-yl)cyclopropyl)methoxy)-2-methylpyrimidin-5-yl)-1-phenylpyridin-2(1H)-one] |
| 1.21 nM | COc1ccc([C@H]2C[C@@H]2COc2nc(C)ncc2-c2ccc(=O)n(C(F)F)c2)nc1 [Example 20, 1-(difluoromethyl)-5-(4-(((1S,2S)-2-(5-methoxypyridin-2-yl)cyclopropyl)methoxy)-2-methylpyrimidin-5-yl)pyridin-2(1H)-one] |
| 0.827 nM | COc1ccc([C@H]2C[C@@H]2COc2nc(C)ncc2-c2ccc(=O)n(C(C)C)c2)nc1 [Example 21, 1-isopropyl-5-(4-(((1S,2S)-2-(5-methoxypyridin-2-yl)cyclopropyl)methoxy)-2-methylpyrimidin-5-yl)pyridin-2(1H)-one] |
